Results reported in article PMC5155152, “A diverse intrinsic antibiotic resistome from a cave bacterium” (Nature Communications, 2016).
In brackets after ≈: the same amount, converted by molar mass. Where two headings read alike, the source gives them in different places. Numbered stars: 1 amine (or outer) side, 2 acyl side, 3 side chain; on linkers, the order of the positions; unused ones are H or OH. Bridge positions count the residues as written; N and C are the ends. Square brackets hold non-standard residues; d marks the D form. Peptide text beside a SMILES is read from it. * marks the point of attachment. NMePhe(4-NMe2) = CN[C@@H](Cc1ccc(N(C)C)cc1)C(=O)O; X1 = O=C([C@@H]1CC=C(CN2CCOCC2)CN1[*:1])[*:2]; Picolinoyl(3-OH) = O=C(c1ncccc1O)*; Phg = N[C@H](C(=O)O)c1ccccc1; dAbu = CC[C@@H](N)C(=O)O

How the values were obtained:
Paenibacillus sp. LC231 [1] = tested on: T1, Paenibacillus sp. LC231; assay: microbe, parasite or virus in culture; set-up: antibacterial susceptibility, minimal inhibitory concentration (quantitative antibiogram)
T1 construct: LC231
From the text: (§1) We generated a quantitative antibiogram for Paenibacillus sp. LC231 for 40 different antibiotics that target diverse cellular processes and compared it with the susceptibility of a surface strain of Paenibacillus lautus ATCC 43898, the pathogen Staphylococcus aureus RN4220 and the environmental bacterium Kocuria rhizophila (formerly identified as Micrococcus luteus) (Supplementary Tables 1 and 2). […] Further experiments in this study investigate the molecular basis of resistance and not the contribution of each genetic determinant to the resistance phenotype of Paenibacillus sp. LC231. […] We focused our investigation on Paenibacillus sp. LC231 and determined that in addition to resistance to 14 classes of antibiotic, it inactivates 7 distinct classes.

Paenibacillus sp. LC231 [2] = tested on: T1, Paenibacillus sp. LC231; assay: microbe, parasite or virus in culture; set-up: broth microdilution MIC, growth inhibition of Paenibacillus sp. LC231
From the text: as §1

MIC (Paenibacillus sp. LC231 [1]) [µg/mL]	Structure (SMILES)	MIC (Paenibacillus sp. LC231 [2]) [µg/mL]
32 (≈ 64.8 µM)	C=C[C@]1(C)C[C@@H](OC(=O)CSCCN(CC)CC)[C@]2(C)[C@H](C)CC[C@]3(CCC(=O)[C@H]32)[C@@H](C)[C@@H]1O [Tiamulin]	–
16 (≈ 17.5 µM)	CC[C@H]1OC(=O)C[C@@H](O)[C@H](C)[C@@H](O[C@@H]2O[C@H](C)[C@@H](O[C@H]3C[C@@](C)(O)[C@@H](O)[C@H](C)O3)[C@H](N(C)C)[C@H]2O)[C@@H](CC=O)C[C@@H](C)C(=O)/C=C/C(C)=C/[C@@H]1CO[C@@H]1O[C@H](C)[C@@H](O)[C@@H](OC)[C@H]1OC [tylosin]	–
32 (≈ 99 µM)	O=C(N[C@H](CO)[C@H](O)c1ccc([N+](=O)[O-])cc1)C(Cl)Cl [chloramphenicol]	–
8 (≈ 14.8 µM)	CN[C@@H]1[C@@H](O[C@H]2O[C@H](CO)[C@@H](N)[C@H](O)[C@H]2O)O[C@H]2C[C@@H](N)[C@@H](O[C@H]3[C@H](O)[C@@H](O)[C@H](N)C[C@@H]3N)O[C@@H]2[C@@H]1O [Apramycin]	–
–	C[C@H]1O[C@H](O[C@H]2[C@H](O)[C@@H](O)[C@@H](O)[C@H](O)[C@@H]2O)[C@@H](N)C[C@@H]1N=C(N)C(=O)O [kasugamycin]	≥ 128
≥ 128	C[C@@H]1O[C@@H]1P(=O)(O)O [Fosfomycin]	–
0.25 (≈ 0.334 µM)	CC[C@H]1OC(=O)[C@H](C)[C@@H](O[C@H]2C[C@@](C)(OC)[C@@H](O)[C@H](C)O2)[C@H](C)[C@@H](O[C@@H]2O[C@H](C)C[C@H](N(C)C)[C@H]2O)[C@](C)(OC)C[C@@H](C)C(=O)[C@H](C)[C@@H](O)[C@]1(C)O [Clarithromycin]	–
16 (≈ 27.3 µM)	NCC[C@H](O)C(=O)N[C@@H]1C[C@H](N)[C@@H](O[C@H]2O[C@H](CN)[C@@H](O)[C@H](O)[C@H]2O)[C@H](O)[C@H]1O[C@H]1O[C@H](CO)[C@@H](O)[C@H](N)[C@H]1O [Amikacin]	–
2 (≈ 3.25 µM)	NC[C@@H]1O[C@H](O[C@H]2[C@@H](O)[C@H](O[C@@H]3[C@@H](O)[C@H](N)C[C@H](N)[C@H]3O[C@H]3O[C@H](CN)[C@@H](O)[C@H](O)[C@H]3N)O[C@@H]2CO)[C@H](N)[C@@H](O)[C@@H]1O [Neomycin]	–
–	CCCCCCCCCC(=O)N[C@@H](Cc1c[nH]c2ccccc12)C(=O)N[C@H](CC(N)=O)C(=O)N[C@@H](CC(=O)O)C(=O)N[C@@H]1C(=O)NCC(=O)N[C@@H](CCCN)C(=O)N[C@@H](CC(=O)O)C(=O)N[C@H](C)C(=O)N[C@@H](CC(=O)O)C(=O)NCC(=O)N[C@H](CO)C(=O)N[C@@H]([C@H](C)CC(=O)O)C(=O)N[C@@H](CC(=O)c2ccccc2N)C(=O)O[C@@H]1C [Daptomycin]	16 (≈ 9.87 µM)
4 (≈ 17.2 µM)	CCn1cc(C(=O)O)c(=O)c2ccc(C)nc21 [Nalidixic acid]	–
16 (≈ 21.4 µM)	CC[C@H]1OC(=O)[C@H](C)[C@@H](O[C@H]2C[C@@](C)(OC)[C@@H](O)[C@H](C)O2)[C@H](C)[C@@H](O[C@@H]2O[C@H](C)C[C@H](N(C)C)[C@H]2O)[C@](C)(O)C[C@@H](C)CN(C)[C@H](C)[C@@H](O)[C@]1(C)O [Azithromycin]	–
–	C=C(NC(=O)C(=C)NC(=O)c1csc(C2=N[C@@H]3c4csc(n4)[C@H]4NC(=O)c5csc(n5)[C@H]([C@](C)(O)[C@@H](C)O)NC(=O)[C@H]5CSC(=N5)/C(=C/C)NC(=O)[C@H]([C@@H](C)O)NC(=O)c5csc(n5)[C@]3(CC2)NC(=O)[C@H](C)NC(=O)C(=C)NC(=O)[C@H](C)NC(=O)[C@H]([C@@H](C)CC)N[C@@H]2C=Cc3c([C@H](C)O)cc(nc3[C@H]2O)C(=O)O[C@@H]4C)n1)C(N)=O [Thiostrepton]	0.25 (≈ 0.15 µM)
≥ 128	CN(C)[C@@H]1C(O)=C(C(N)=O)C(=O)[C@@]2(O)C(O)=C3C(=O)c4c(O)cccc4[C@@](C)(O)[C@H]3C[C@@H]12 [Tetracycline]	–
16 (≈ 37.6 µM)	CCC[C@@H]1C[C@@H](C(=O)N[C@@H]([C@H]2O[C@H](SC)[C@H](O)[C@@H](O)[C@H]2O)[C@H](C)Cl)N(C)C1 [Clindamycin]	–
0.25 (≈ 0.408 µM)	CO[C@@H]1[C@@H](OC(N)=O)[C@@H](O)[C@H](Oc2ccc3c(O)c(NC(=O)c4ccc(O)c(CC=C(C)C)c4)c(=O)oc3c2C)OC1(C)C [Novobiocin]	–
2 (≈ 5.22 µM)	C[C@@H](O)[C@H]1C(=O)N2C(C(=O)O)=C(S[C@@H]3CN[C@H](C(=O)N(C)C)C3)[C@H](C)[C@H]12 [Meropenem]	–
64 (≈ 67.4 µM)	CC[C@H]1NC(=O)[C@@H](NC(=O)c2ncccc2O)[C@@H](C)OC(=O)[C@H](c2ccccc2)NC(=O)[C@@H]2CC=C(CN3CCOCC3)CN2C(=O)[C@H](Cc2ccc(N(C)C)cc2)N(C)C(=O)[C@@H]2CCCN2C1=O [linopristin] ({Picolinoyl(3-OH)}-T[dAbu]P[NMePhe(4-NMe2)][X1][Phg]; ester 1-C)	–
≥ 100	C/C(=C\C(=O)OCCCCCCCCC(=O)O)C[C@@H]1OC[C@H](C[C@@H]2O[C@H]2[C@@H](C)[C@H](C)O)[C@@H](O)[C@H]1O [Mupirocin]	–
2 (≈ 2.46 µM)	CC[C@H]1OC(=O)[C@H](C)C(=O)[C@H](C)[C@@H](O[C@@H]2O[C@H](C)C[C@H](N(C)C)[C@H]2O)[C@](C)(OC)C[C@@H](C)C(=O)[C@H](C)[C@H]2N(CCCCn3cnc(-c4cccnc4)c3)C(=O)O[C@]12C [Telithromycin]	–
